In PubChem BioAssay (NCI):
Several values for one entry are separate records, joined by “and”; a condition that tells them apart may be missing. Equal values may be shown once.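 48-hour exposure; five concentrations; linearly interpolated endpoints. The concentration for 50% growth inhibition is given as GI50. At the TGI there is no net growth.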

System: MDA-MB-468 breast
Test: NCI-60 cell line screen, 48 h

Compound | GI50 | TGI
C=CC(=O)Nc1cccc(C)c1Nc1cc(-c2cccnc2Cc2c(C)c(OC)cc(OC)c2C)ncn1 | 5.85 µM | 24.7 µM
Cc1cc2c3ccc(C)[n+](C)c3ccc2n1C | 1.12 µM | 8.5 µM
Cc1cc(NCc2cc(Nc3ccnc4cc(Cl)ccc34)ccc2F)nc(N2CCCC2)n1 | 1.33 µM | 3.07 µM
COc1ccc(-c2n[nH]nc2-c2cc(OC)c3c(c2OC)OCO3)cc1 | 0.386 µM | 1.49 µM
Nc1ncnc2[nH]ncc12 | 0.219 µM | 2.85 µM
CC(C)CC(CC1=CCC2CC1C2(C)C)C1=C(O)C(C)(C)C(=O)C(C)(C)C1=O (centres undefined) | 0.268 µM | 1.33 µM
O=C(/C(=C/c1ccccc1)CN1CCCCC1)c1ccccc1 | 0.531 µM | 1.95 µM
Clc1cc(Cl)c(OCC#CI)cc1Cl | 2.36 µM | 7.29 µM
N#C/C(=C\c1c(-c2ccccc2)[nH]c2ccccc12)S(=O)(=O)c1ccccc1 | 1.86 µM | > 28.3 µM
O=S(=O)(NCCNC/C=C/c1ccc(Br)cc1)c1cccc2cnccc12 | 3.3 µM and 5.06 µM | 13.8 µM and 18.5 µM
COc1cccc(NC(=O)c2sc3nc4c(cc3c2N)CN(Cc2ccccc2)CC4)c1 | 2.6 µM | 61.4 µM
C[C@]12CC[C@H]3[C@@H](CCC4=CC(=O)CC[C@@H]43)[C@@H]1CC[C@@H]2OC(=O)CCc1ccccc1 | > 61.4 µM | > 100 µM
CN(C)c1ccc2c(c1)Sc1cc(N(C)C)ccc1N2C(=O)c1ccccc1 | 44.7 µM | > 100 µM
O=C(c1ccccc1)C(CN1CCOCC1)c1ccccc1 (centres undefined) | 0.382 µM | 1.59 µM
CN(C)CCCN1c2ccccc2CCc2ccc(Cl)cc21 | 1.42 µM | 3.23 µM
CN(C)c1ccc(/C=C\c2cccc[n+]2C)cc1 | 0.988 µM | 5.76 µM
C[C@]12CCC3[C@@H](CC[C@@H]4c5nonc5CC[C@]34C)C1CCC(=O)N2 (some centres undefined) | 60.2 µM | > 100 µM
COC(=O)C(Cc1ccccc1)NC(=O)NC(=O)NC(=O)CI (centres undefined) | 4.1 µM | 15.1 µM
CCC1C(c2cc(OC)c(OC)c(OC)c2)c2cc3c(cc2OC1N1CCCC1)OCO3 (centres undefined) | 4.23 µM | 25.2 µM
CS(=O)(=O)c1ccc(C(=O)Nc2ccc(Cl)c(-c3ccccn3)c2)c(Cl)c1 | 20.8 µM and 2.16 µM | > 86 µM and 9.69 µM
CC1=C(CCC(C)N(C)Cc2ccc(OCCCN3CCCC3)cc2)C(C)(C)CCC1 (centres undefined) | 2.15 µM | 5.75 µM
COc1ccc(-c2cc(-c3ccccc3)nc(SCCCC(=O)NO)n2)cc1 | 1.14 µM | 4.52 µM
CCN(C(=O)N1CCN(c2cc3c(cc2F)c(=O)c(C(=O)O)cn3C2CC2)CC1)c1nc(-c2ccc(C)cc2)cs1 | 1.13 µM | 7.4 µM
Cc1ccc(C(=O)Nc2ccc(CN3CCN(C)CC3)c(C(F)(F)F)c2)cc1C#Cc1cnc2cccnn12 | 0.461 µM and 1.5 µM | 1.72 µM and 4.22 µM

Compound | GI50 | TGI
CCN=C1C=CC(=C(c2ccc(N)cc2)c2ccc(N(CC)CC)c(C)c2)C=C1 | 0.193 µM | 0.718 µM
C=C1CC[C@@H]2[C@](C)(COC(C)=O)[C@@H](O)CC[C@@]2(C)[C@@H]1COc1ccc2ccc(=O)oc2c1 | > 100 µM | > 100 µM
Cn1c2c(cc(S(=O)(=O)c3ccccc3)c1=O)CCc1c-2cnn1-c1ccc(Cl)cc1 | 2.39 µM | 5.65 µM
CCCn1c(C)nc2c1C(=O)c1ccccc1C2=O | 18.7 µM | 56.7 µM
Cc1ccc(C(=O)Nc2cccc(C(F)(F)F)c2)cc1Nc1nc(-c2cccnc2)nc2c1cnn2C | 3.02 µM and 1.78 µM | 8.4 µM and 4.48 µM
Cc1cc(N/N=C/c2nc(-c3ccc(Br)cc3)oc2C)c2cc(Cl)ccc2n1 | > 100 µM | > 100 µM
CC(C)(C)c1ccc(OCCCCCCN2CCNCC2)cc1 | 2.38 µM | 6.78 µM
C=CC(=O)N(C)[C@H]1C[C@H]2OC(C)(C1OC)n1c3ccccc3c3c4c(c5c6ccccc6n2c5c31)C(=O)NC4 (some centres undefined) | 0.0571 µM | 0.235 µM
CCCn1cnc2c(c1=N)C(c1ccc(Cl)cc1)c1sc3c(C)cccc3c1O2 (centres undefined) | 0.361 µM | 3.9 µM
N/C(=N\N=C\c1ccc(-c2ccccc2)cc1)N[N+](=O)[O-] | 0.935 µM | > 100 µM
COc1ccc(C2CC(c3cc(OC)c(OC)c(OC)c3)=NN2C(C)=O)cc1OCC(=O)Nc1nc2ccc(C(F)(F)F)cc2s1 (centres undefined) | 6.12 µM | 29.1 µM
O=C(C1CCCCC1)[C@@H]1[C@]2(C(=O)NC3CCCCC32)[C@@H]2CCCN2[C@@]12C(=O)NC1CCC(Cl)CC12 (some centres undefined) | 121 µM | 277 µM
CCN1CCC(CCOC)(CN2c3ccccc3Sc3ccc(Cl)cc32)C1 (centres undefined) | 1.66 µM | 3.37 µM
O=c1[nH]c2ccccc2nc1-c1c[nH]c2ccccc12 | > 100 µM | > 100 µM
O[C@H]1CO[C@H]2[C@@H]1OC[C@@H]2Oc1ccc(Nc2ccnc(Nc3ccc(O[C@H]4CO[C@H]5[C@@H]4OC[C@@H]5O)c(Cl)c3)n2)cc1Cl | 1.18 µM | 3.81 µM
CC(CN1CCN(CCOCCO)CC1)CN1c2ccccc2Sc2ccc(Cl)cc21 (centres undefined) | 1.69 µM | 4.14 µM
CN1CCN(Cc2ccc(NC(=O)c3cncc(C#Cc4cnc(N)c5ccncc45)c3)cc2C(F)(F)F)CC1 | 1.26 µM | 8.24 µM
O=C1c2c(c3c4ccccc4[nH]c3c3ccc4ccccc4c23)C(=O)N1CCN1CCCCC1 | 0.38 µM | 2.49 µM
Cc1ccc(NC(=O)/C=C/c2ccccc2)c(C(N)=O)c1 | 3.17 µM | 28.1 µM
O=[N+]([O-])c1cccc(-c2nc3sccn3c2-c2ccnc(NCCCNS(=O)(=O)c3cccc(F)c3)n2)c1 | 0.829 µM | 6.1 µM
C=CC(=O)N1CCN(c2ccc3cccc(NC(=O)c4cnc(C)cn4)c3n2)CC1 | 1.83 µM | 7.45 µM
Cc1ccc(-c2cc(-c3ccc(C)cc3)nc(NCCNc3ccnc4cc(Cl)ccc34)n2)cc1 | 1.44 µM | 3.06 µM
C/C(=N\Nc1ccc2ccccc2n1)c1ccccn1 | 0.0962 µM | 0.705 µM
